From a melting point compilation (Tetko et al.; mined from patent text by program, amines drawn as free bases though some values may be those of a salt)

Row | Structure (SMILES) | melting point
1 | CCCCCCNC(=O)[C@H](C)C[C@H](O)[C@H](CC1CCCCC1)NC(=O)[C@H](Cc1cscn1)NC(=O)OC(C)(C)C | 156 to 158 °C
2 | Fc1ccc(F)c(N=C2CCCc3cc4c(nc32)C(=Nc2c(F)cccc2F)CCC4)c1 | 145 to 150 °C
3 | COC(=O)C(Cc1c[nH]c2ccccc12)NC1CCC(c2ccccc2)(N(C)C)CC1 (stereo not given) | 60 to 65 °C
4 | CC(C)n1nc2ccc(Cl)c([N+](=O)[O-])c2n1 | 67 to 70 °C
5 | Cc1cc(SC2=C(O)CC(CCc3ccc(O)cc3)(C3CCCCC3)OC2=O)c(C(C)(C)C)cc1OS(=O)(=O)c1ccccc1 (stereo not given) | 180 °C
6 | COc1cc2[nH]c(N(C)Cc3cccc(C4CCN(C)CC4)c3)nc(=O)c2c(C)c1OC | 156 to 158 °C
7 | CC(=O)OC1CCC2C3CCC4=C([N+](=O)[O-])C(=O)CCC4(C)C3CCC12C (stereo not given) | 216 to 217 °C
8 | COc1cc(OP(=O)(OC)OC)c(C(=O)c2ccccc2)s1 | 76 °C
9 | CCOCc1nc2c(N)nc3cc(OCc4cscn4)ccc3c2n1CC(C)(C)O | 190 to 191 °C
10 | CCOC(=O)CNC(=O)Nc1ccc(C(=O)/C=C/c2ccc(-c3cccs3)cc2)cc1 | 209 to 212 °C
11 | CC(C)(C)c1cc(CCc2cc(F)ccc2NC(=O)NC2CCN(Cc3ccccc3)CC2)cc(C(C)(C)C)c1O | 108 to 109 °C
12 | O=C(OC1COC(OC(=O)C2CCCCC2)CO1)C1CCCCC1 (stereo not given) | 156 to 158 °C
13 | CCCc1nc2c(C)cc(C)nc2n1Cc1ccc2oc(-c3ccccc3C(=O)O)nc2c1 | 150 to 160 °C
14 | COc1cc(-n2nc(Cl)cc2-c2ccc(S(C)(=O)=O)cc2)ccc1[N+](=O)[O-] | 170 to 175 °C
15 | O=C1C(=Cc2ccc(Br)cc2)CCc2cc(OCCc3c[nH]cn3)ccc21 | 176 to 178 °C
16 | CC(C)(C)SC1CN(C(=O)OCc2ccccc2)CC1NS(=O)(=O)c1ccc(Oc2ccccc2)cc1 (stereo not given) | 125 to 126 °C
17 | CCC1(O)OCc2c1ccnc2OC (stereo not given) | 145 °C
18 | Cc1cc(-c2ccc(Cl)c(Cl)c2)nc(-c2cccc(-c3cccc(S(N)(=O)=O)c3)c2)n1 | 206 °C
19 | CCOC(=O)C(NC(=O)c1ccc(C)cc1)C(=O)OCC | 98 to 99 °C
20 | O=C(O)Cc1cnn(-c2ccccc2)c1-c1ccccc1 | 107 to 110 °C
21 | COc1cc2[nH]cc(-c3cc4cc(F)cnc4n3S(=O)(=O)c3ccc(C)cc3)c2cc1OC | 218 °C
22 | FC(F)(F)c1cccc(CSc2nnc(-c3ccc4ncsc4c3)o2)c1 | 112 to 113 °C

Row | Structure (SMILES) | melting point
23 | CC(C)c1nc2cc(NC(=O)c3c(C(=O)N4CC(F)C4)cnn3C)ccn2n1 | 226 to 227 °C
24 | COc1cc(C)c(C=CC=CC=C(C)C(=O)O)c(C)c1C | 179 to 180 °C
25 | COc1cc(C#N)ccc1-c1nc2cc(Cl)c(Cl)cc2[nH]1 | > 250 °C
26 | COc1ccc(N2C(=O)[C@H](O)[C@H]2c2ccco2)cc1 | 149 to 152 °C
27 | CN(Cc1cccc2c1CN(C1CCC(=O)NC1=O)C2=O)C(=O)Nc1ccc(Cl)c(Cl)c1 (stereo not given) | 275 to 277 °C
28 | COc1ccc(C2Sc3ccc(OC)cc3N(CCN(C)C)C(=O)C2O)cc1 (stereo not given) | 127 to 129 °C
29 | Cc1ccc(N2C(=O)C(O)=C(C(=O)c3ccc(OC(F)(F)F)cc3)C2c2ccc(Cn3ccnn3)cc2)nn1 (stereo not given) | 275 °C
30 | CC(C)(C)OC(=O)N1CCn2c(Cl)c(Br)c(C(N)=O)c2C1 | 214 to 216 °C
31 | COCc1cc2c(s1)CCc1cc(=O)n(-c3ccc(C)cc3)nc1-2 | 132 to 133 °C
32 | CC(C)(C)OC(=O)NCC(=O)Nc1ccc2c(c1)-c1c(c(C(=O)C(C#N)C(=O)Nc3ccccc3)nn1-c1ccccc1)CS2 (stereo not given) | 190 to 200 °C
33 | COc1ccc2sc(C(N)=O)c(SCC(=O)O)c2c1 | 126 to 127 °C
34 | CCCCCCCCCCC1COC(=O)N1 (stereo not given) | 31.5 to 32.5 °C
35 | CCOC(=O)C1=C(COCC(C)(O)c2ccco2)NC(C)=C(C(=O)OC)C1c1cccc(Cl)c1Cl (stereo not given) | 88 to 90 °C
36 | O=C(O)c1cccc(C(CCc2ccc(Cl)cc2)CC(=O)c2ccccc2)c1 (stereo not given) | 93 to 95 °C
37 | Cn1c2c(c3cccc(F)c31)C(=O)CCC2 | 126 to 128 °C
38 | CN(C)S(=O)(=O)n1cc(-c2ccc(Cl)cc2Cl)nc1C(N)=S | 184 to 187 °C
39 | O=C(c1ccc(Nc2ccccc2[N+](=O)[O-])cc1)c1ccccc1O | 189 to 193 °C
40 | Nc1cc(-c2ccccc2)n(-c2ccc(S(N)(=O)=O)cc2)n1 | 286 to 290 °C
41 | CC(C)(C)OC(=O)N1CC=C(c2nc3c(Cl)cccc3s2)CC1 | 98 to 101 °C
42 | O=S(=O)(Nc1ccc2oncc2c1)c1cc(Cl)ccc1Cl | 173 to 174 °C
43 | NC(=O)C1(O)c2ccccc2S(=O)(=O)N1Cc1ccc(Br)cc1F (stereo not given) | 182 to 184 °C
44 | O=[N+]([O-])c1ccc2c(c1)N[C@@H]1c3cc([N+](=O)[O-])ccc3C[C@H]21 (relative stereo) | 174 to 176 °C

Row | Structure (SMILES) | melting point
45 | CC1(C)Oc2ccc([N+](=O)[O-])cc2C(n2ccccc2=O)=C1CNC=O | 170 °C
46 | CC(=O)NC1=C(c2cccc(C(F)(F)F)c2)C(=O)OC1 | 140 °C
47 | CN(C)c1cccc2c(S(=O)(=O)Nc3ccc(Cl)nc3)cccc12 | 145 to 146 °C
48 | Cn1c(C(F)(F)F)cc(=O)n(-c2cc(OCN3C(=O)CCC3=O)c(Cl)cc2F)c1=O | 212 to 214 °C
49 | COC(=O)CCCc1cc2nc(OC)ccc2n1S(=O)(=O)c1ccccc1 | 113 to 114 °C
50 | O=C(CCc1c(C=C2C(=O)Nc3ccccc32)[nH]c2c1CCCC2)NCCN1CCOCC1 | 256 to 258 °C
51 | O=C(O)CCCCCCCCCSc1ccccc1O | 58 to 59 °C
52 | COc1ccnc(CSc2nc3cc(OC(F)(F)C(F)F)ccc3[nH]2)c1OC | 98 to 102 °C
53 | O=C(CSc1ccccc1)C1CCCCN1 (stereo not given) | 68.5 to 69.5 °C
54 | NS(=O)(=O)Oc1ccc(C(=O)c2ccc(OS(N)(=O)=O)cc2)cc1 | 182 to 185 °C
55 | CCOC(=O)C1=C(C)NC(=S)N(C(=O)OCc2ccccc2)C1c1cccc([N+](=O)[O-])c1 (stereo not given) | 122 to 124 °C
56 | CC(C)c1ccc(OC(Cc2ccc(OCCNC(=O)c3ccc(-c4ccc(N(C)C)cn4)cc3)cc2)C(=O)O)cc1 (stereo not given) | 150 to 151 °C
57 | Cn1cc(-c2cccc(Cl)c2)c(=O)c(-c2cccc(C(F)(F)F)c2)c1 | 133 to 135 °C
58 | COc1ccc(C2(c3ccc(OC)cc3)CC(C)N=C2NC(=O)c2cc(C)[nH]n2)cc1 (stereo not given) | 173 °C
59 | CC1SC(=O)NN=C1c1ccc2c(c1)C(=Cc1cccnc1)C(=O)N2 (stereo not given) | 285 °C
60 | O=C1Nc2ccccc2C1CCCCN1CCN(c2ccc(Cl)cc2)CC1 (stereo not given) | 136 to 137 °C
61 | CNCC(O)CN1CCN(CC(O)Cn2c3ccc(Br)cc3c3cc(Br)ccc32)CC1 (stereo not given) | 65 to 75 °C
62 | Cc1ccc2cccc(OCc3c(Cl)ccc(N(C)C(=O)CN4C(=O)c5ccccc5C4=O)c3Cl)c2n1 | 204 °C
63 | O=C(O)COc1cc(-c2c3ccccc3c(Br)c3sc4ccccc4c23)ccc1Br | 174 to 175 °C
64 | Cc1cccc(Cl)c1C(=O)N[C@@H](Cc1ccc(-c2c(C(F)(F)F)n(C)c(=O)n(C)c2=O)cc1)C(=O)O | 243 to 247 °C
65 | CC(C)c1ccccc1NC#N | 75 to 77 °C
